Where “and” joins values, the source holds several entries; their conditions need not be identical. Equal values may be shown once. Read-outs that look alike come from different tables or passages of the source.
How the values were obtained:
[1] = tested on: H3K27me3 in HUDEP-2 cells; experiment: Western blotting of H3K27me3; type: cell-based, human; settings: peer review file
Description: Preparation of cell lysates and western blotting were performed as described previously. Protein from cells lysates in lysis buffer (50 mM Tris-HCl (pH 7.5), 150 mM NaCl, 5 mM EDTA, 0.1% NP-40, 1 mM dithiothreitol) were separated by sodium dodecyl sulfate–polyacrylamide gel electrophoresis (SDS-PAGE) and transferred to a polyvinylidene difluoride (PVDF) membrane (Millipore) by electroblotting. The membranes incubated with primary antibodies overnight at 4 °C and secondary antibodies for 1 h at room temperature. The immune complexes were detected with the Immobilon Western Chemiluminescent HRP Substrate (Millipore). Luminescence was analyzed on a FUSION SOLO S (Vilber). Western blot bands were visualized using Evolution Capt software (M&S Instruments Inc.). Primary antibodies used were anti-G9a (1:1000, CST, #3306), anti–α-tubulin (1:5000, Abcam, ab18251), anti-H3K9me2 (1:3000, Abcam, ab1220), anti-H3 (1:5000, Abcam, ab1791), anti-H3K27me3 (1:3000, Sigma, 07-449), anti-GLP (1:1000, CST, #35005), anti-FLAG (100 ng/ml, Fujifilm, 01422383), anti-His (1:5000, MBL, PM032), anti-BCL11A (1:1000, abcam, ab19487), anti-ZBTB7A (1:1000, CST, #50565), anti-CHD3 (1:1000, Novus Biologicals, NB100-60412), and anti-CHD4 (1:1000, abcam, ab240640). Uncropped scans of all of the blots are available in Source Data file.

CD34+ cells = experiment: Flow cytometry of erythroid differentiation (CD45, glycophorin A); type: cell-based, human
Description: For the analysis of HbF expression, HUDEP-2 cells or cells differentiated from human CD34 + progenitor cells were fixed in 0.05% glutaraldehyde for 10 min, then washed two times with PBS containing 2% FBS (PBS/2% FBS) and permeabilized with 0.1% Triton X-100 (prepared in PBS/2% FBS; Life Technologies) for 5 min. After washing with PBS/2% FBS two times, cells were stained with allophycocyanin (APC)-conjugated HbF antibody (1:1, Invitrogen, MHFH05). One million cells were incubated with the HbF–APC antibody for 30 min in the dark at 4 °C. Cells were washed twice with PBS/2% FBS, then suspended in 0.2 ml PBS/2% FBS and analyzed using a FACSCalibur (Becton Dickinson). To assess erythroid differentiation, hematopoietic cells differentiated from human CD34 cells were stained with FITC-conjugated CD45 antibody (1:1, Becton Dickinson, 555482) and APC-conjugated glycophorin A antibody (1:20, Becton Dickinson, 551336). Stained cells were suspended in 0.2 ml PBS/2% FBS containing 1 μg/ml propidium iodide (Sigma) and analyzed by FACSCalibur. The results of flow cytometer were further analyzed by FlowJo software (Becton Dickinson).

[2] = Parallel artificial membrane permeability assay (PAMPA); type: in vitro ADME
Description: Parallel artificial membrane permeability measurements were performed in duplicate with a Corning Gentest Pre-coated PAMPA Plate System according to the standard protocol of Corning Incorporated Life Sciences (Tewksbury).

NSD2 [3] = target: T1, NSD2 (Homo sapiens, UniProt O96028)
G9a = target: T2, G9a (Homo sapiens, UniProt Q96KQ7); experiment: biochemical
T2 sequence (Q96KQ7 1-1210): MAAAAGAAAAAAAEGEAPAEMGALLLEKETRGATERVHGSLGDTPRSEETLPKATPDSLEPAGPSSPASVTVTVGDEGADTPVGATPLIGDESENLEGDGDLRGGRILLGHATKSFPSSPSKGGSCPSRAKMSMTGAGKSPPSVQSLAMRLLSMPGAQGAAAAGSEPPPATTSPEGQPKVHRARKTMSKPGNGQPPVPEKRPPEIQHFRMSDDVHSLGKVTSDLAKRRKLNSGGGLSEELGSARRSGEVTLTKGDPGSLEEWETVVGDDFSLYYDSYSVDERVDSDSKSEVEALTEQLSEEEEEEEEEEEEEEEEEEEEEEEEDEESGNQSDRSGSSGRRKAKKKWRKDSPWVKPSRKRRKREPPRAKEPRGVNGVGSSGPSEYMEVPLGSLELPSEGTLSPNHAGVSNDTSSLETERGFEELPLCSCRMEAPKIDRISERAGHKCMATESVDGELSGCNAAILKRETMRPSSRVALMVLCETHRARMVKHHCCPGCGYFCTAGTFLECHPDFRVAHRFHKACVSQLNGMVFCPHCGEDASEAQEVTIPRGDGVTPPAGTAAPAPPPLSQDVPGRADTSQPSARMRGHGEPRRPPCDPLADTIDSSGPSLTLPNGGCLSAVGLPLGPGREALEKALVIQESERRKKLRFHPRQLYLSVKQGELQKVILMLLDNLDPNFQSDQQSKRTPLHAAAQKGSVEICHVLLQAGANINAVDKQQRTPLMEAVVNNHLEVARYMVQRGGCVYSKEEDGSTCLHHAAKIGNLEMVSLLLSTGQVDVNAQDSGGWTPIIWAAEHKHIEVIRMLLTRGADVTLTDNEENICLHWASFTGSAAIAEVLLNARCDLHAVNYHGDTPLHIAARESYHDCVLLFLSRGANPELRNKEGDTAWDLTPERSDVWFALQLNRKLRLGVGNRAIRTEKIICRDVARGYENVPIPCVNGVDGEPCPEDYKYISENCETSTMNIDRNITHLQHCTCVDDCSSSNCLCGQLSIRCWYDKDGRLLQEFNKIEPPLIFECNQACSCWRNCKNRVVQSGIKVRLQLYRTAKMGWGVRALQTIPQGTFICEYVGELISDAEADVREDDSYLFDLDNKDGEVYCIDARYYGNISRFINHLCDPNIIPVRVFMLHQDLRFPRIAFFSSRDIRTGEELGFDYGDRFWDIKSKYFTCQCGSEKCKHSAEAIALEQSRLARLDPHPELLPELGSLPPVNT

PRMT5/MEP50 = PRMT5/MEP50 (Homo sapiens, UniProt O14744); experiment: biochemical
MLL2 [4] = experiment: Radioisotope-based methyltransferase assay (selectivity); settings: MLL2, 1 μM SAM
NSD2 [5] = target: T1, NSD2; experiment: as above
MLL2 [6] = target: MLL2 (Homo sapiens, UniProt O14686); experiment: as above; settings: MLL2, 1 μM SAM
MLL2 (Homo sapiens, UniProt O14686), sequence (O14686 5319-5537): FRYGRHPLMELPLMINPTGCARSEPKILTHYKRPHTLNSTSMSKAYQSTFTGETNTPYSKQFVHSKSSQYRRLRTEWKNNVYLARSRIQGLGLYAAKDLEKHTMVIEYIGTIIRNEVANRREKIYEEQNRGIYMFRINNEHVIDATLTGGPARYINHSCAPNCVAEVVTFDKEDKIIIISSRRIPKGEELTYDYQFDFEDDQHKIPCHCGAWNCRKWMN
MLL2 (Homo sapiens, UniProt O14686), sequence (Q9C005 whole entry, further chain): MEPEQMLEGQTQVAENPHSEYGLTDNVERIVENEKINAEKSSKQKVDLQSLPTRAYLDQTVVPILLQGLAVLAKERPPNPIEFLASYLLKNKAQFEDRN
MLL2 (Homo sapiens, UniProt O14686), sequence (Q15291 whole entry, further chain): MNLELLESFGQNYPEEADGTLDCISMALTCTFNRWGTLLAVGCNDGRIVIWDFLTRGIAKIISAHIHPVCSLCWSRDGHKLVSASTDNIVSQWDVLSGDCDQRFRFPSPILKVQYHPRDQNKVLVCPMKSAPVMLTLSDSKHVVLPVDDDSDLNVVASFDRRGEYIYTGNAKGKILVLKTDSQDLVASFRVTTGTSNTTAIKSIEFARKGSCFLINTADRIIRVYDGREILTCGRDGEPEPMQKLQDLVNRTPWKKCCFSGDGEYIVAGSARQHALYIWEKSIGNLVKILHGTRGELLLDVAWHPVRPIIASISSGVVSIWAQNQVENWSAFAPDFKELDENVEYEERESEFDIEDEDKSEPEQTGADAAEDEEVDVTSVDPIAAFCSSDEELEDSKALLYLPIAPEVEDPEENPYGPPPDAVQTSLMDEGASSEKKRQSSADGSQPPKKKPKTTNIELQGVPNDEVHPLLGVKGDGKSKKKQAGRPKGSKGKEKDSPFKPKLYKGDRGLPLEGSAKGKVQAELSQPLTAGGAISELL
MLL2 (Homo sapiens, UniProt O14686), sequence (Q9UBL3 whole entry, further chain): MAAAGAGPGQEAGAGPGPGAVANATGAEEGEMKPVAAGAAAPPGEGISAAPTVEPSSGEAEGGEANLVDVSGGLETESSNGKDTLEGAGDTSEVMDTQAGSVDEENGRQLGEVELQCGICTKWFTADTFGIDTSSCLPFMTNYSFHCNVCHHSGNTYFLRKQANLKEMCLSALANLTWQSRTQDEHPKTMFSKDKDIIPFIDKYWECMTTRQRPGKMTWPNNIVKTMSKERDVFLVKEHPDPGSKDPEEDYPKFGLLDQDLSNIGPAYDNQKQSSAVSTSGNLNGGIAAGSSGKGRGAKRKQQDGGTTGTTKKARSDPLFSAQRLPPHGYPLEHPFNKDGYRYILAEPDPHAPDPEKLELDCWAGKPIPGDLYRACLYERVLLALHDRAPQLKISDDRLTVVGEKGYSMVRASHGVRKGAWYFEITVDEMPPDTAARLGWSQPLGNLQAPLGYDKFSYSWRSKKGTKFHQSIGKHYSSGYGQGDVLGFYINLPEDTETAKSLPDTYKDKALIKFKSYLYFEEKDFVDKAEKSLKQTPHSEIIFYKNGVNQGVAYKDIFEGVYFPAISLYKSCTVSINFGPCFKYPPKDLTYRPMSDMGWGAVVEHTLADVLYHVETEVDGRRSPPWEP

T1 sequence (O96028 whole entry): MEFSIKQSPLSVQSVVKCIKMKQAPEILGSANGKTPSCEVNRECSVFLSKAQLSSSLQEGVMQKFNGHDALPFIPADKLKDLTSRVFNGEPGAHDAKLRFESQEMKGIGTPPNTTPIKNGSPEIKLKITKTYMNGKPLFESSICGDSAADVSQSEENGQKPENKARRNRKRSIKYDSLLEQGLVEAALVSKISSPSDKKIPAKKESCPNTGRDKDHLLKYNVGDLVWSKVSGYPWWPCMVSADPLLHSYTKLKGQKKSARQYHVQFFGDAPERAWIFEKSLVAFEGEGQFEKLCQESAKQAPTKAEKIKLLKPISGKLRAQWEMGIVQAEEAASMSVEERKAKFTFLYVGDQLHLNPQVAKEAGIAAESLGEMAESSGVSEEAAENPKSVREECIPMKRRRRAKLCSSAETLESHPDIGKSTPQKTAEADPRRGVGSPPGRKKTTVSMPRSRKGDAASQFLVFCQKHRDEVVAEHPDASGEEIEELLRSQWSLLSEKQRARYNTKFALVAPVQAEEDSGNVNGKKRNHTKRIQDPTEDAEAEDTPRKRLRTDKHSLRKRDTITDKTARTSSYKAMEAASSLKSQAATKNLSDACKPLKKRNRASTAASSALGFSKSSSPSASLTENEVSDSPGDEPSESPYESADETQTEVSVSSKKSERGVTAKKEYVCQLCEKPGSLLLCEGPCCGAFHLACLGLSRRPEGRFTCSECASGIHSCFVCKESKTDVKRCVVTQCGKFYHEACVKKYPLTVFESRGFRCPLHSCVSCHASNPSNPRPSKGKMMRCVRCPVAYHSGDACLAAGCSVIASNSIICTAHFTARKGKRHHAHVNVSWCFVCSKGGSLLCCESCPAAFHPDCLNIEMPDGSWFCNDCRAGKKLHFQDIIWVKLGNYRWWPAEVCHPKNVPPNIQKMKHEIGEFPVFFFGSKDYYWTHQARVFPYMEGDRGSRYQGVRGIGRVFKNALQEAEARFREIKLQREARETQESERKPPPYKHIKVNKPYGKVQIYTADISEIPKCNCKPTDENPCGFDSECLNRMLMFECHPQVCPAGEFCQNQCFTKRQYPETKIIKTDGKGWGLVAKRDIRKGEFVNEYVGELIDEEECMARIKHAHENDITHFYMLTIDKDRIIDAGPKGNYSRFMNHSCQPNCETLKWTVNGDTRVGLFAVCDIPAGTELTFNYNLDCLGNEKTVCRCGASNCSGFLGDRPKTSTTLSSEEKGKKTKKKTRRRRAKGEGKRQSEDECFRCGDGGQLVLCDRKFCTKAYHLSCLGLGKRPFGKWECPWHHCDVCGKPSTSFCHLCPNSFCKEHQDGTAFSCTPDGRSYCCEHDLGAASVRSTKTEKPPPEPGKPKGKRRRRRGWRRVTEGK
PRMT5/MEP50, sequence (O14744 whole entry): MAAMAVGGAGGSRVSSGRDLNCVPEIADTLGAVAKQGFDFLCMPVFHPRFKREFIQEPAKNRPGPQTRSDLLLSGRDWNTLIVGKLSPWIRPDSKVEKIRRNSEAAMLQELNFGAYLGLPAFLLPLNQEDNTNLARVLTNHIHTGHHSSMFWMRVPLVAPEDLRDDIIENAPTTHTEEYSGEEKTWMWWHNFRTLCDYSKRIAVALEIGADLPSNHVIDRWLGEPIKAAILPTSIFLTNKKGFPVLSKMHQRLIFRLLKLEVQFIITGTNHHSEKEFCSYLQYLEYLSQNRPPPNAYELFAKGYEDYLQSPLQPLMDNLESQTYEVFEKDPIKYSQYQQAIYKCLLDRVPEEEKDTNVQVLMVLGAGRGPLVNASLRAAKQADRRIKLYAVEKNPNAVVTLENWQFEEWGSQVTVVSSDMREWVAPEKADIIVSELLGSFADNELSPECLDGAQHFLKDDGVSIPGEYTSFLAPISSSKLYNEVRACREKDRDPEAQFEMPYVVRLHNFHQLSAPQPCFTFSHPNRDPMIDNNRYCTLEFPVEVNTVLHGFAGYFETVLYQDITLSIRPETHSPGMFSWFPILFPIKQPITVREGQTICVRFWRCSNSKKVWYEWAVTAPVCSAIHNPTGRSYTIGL
PRMT5/MEP50, sequence (Q9BQA1 whole entry partner): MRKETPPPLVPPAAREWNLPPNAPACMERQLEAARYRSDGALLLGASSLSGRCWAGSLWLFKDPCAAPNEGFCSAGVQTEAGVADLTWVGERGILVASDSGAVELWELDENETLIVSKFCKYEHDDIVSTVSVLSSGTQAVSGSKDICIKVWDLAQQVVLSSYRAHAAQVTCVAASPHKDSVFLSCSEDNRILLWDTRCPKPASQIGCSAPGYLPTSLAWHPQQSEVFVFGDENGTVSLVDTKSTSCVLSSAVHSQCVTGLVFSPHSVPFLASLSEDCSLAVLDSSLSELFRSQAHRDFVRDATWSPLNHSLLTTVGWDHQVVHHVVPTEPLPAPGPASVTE
MLL2, sequence (O14686 5319-5537): as the sequence (O14686 5319-5537) above
MLL2, sequence (Q9C005 whole entry, further chain): as the sequence (Q9C005 whole entry, further chain) above
MLL2, sequence (Q15291 whole entry, further chain): as the sequence (Q15291 whole entry, further chain) above
MLL2, sequence (Q9UBL3 whole entry, further chain): as the sequence (Q9UBL3 whole entry, further chain) above

Row | SMILES | H3K27me3 ([1]; 0.1 µM) | H3K27me3 [1] | erythroid differentiation (CD34+ cells) | cell permeability (PAMPA and Caco-2) [2] | Papp ([2]; PAMPA) | PAMPA ([2]; replicate values) | IC50 (NSD2 [3]) | IC50 (G9a) | IC50 (PRMT5/MEP50) | IC50 (MLL2 [4]) | IC50 (NSD2 [5]) | IC50 (MLL2 [6])
1 | Cc1c(C(=O)NC(CCC2CC2)C(=O)Nc2ccc(C#N)cc2)[nH]c2c1C(=O)CC(C)(C)C2 (stereo not drawn) [RK-701] | no effect on H3K27me3 | slightly decrease H3K27me3 only at high | without affecting cell viability or erythroid differentiation | decent cell permeability | 3.08 ± 1.47 ×10⁻⁶ cm/s | 2.736e-6 and 5.393e-6 and 2.8861e-6 and 1.3122e-6 | > 100 µM | 0.0218 µM and 0.0239 µM | > 100 µM | > 100 µM | > 100 µM | 
2 | Nc1ncnc2c1ncn2[C@@H]1O[C@H](CSCC[C@H](N)C(=O)O)[C@@H](O)[C@H]1O [SAH, S-(5'-Adenosyl)-L-homocysteine, reference compound] |  |  |  |  |  |  |  |  |  |  |  | 11.6 µM
